Reference: US12268666B2, “Spray-dried dispersions, formulations, and polymorphs of (S)-5-amino-3-(4-((5-fluoro-2-methoxybenzamido)methyl)phenyl)-1-(1,1,1-trifluoropropan-2-yl)-1H-pyrazole-4-carboxamide” (Loxo Oncology, Inc., priority 2018, dated 2025)
Read-outs that look alike come from different tables or passages of the source.

Columns and labels:
[1] = Dog pharmacokinetics, crystalline compound in suspension (Example 15 Part A); assay type: in vivo, beagle dogs; conditions: for bioavailability / AUC(0-t) / Cmax: both sexes, beagle, dog, plasma, 30 mg/kg; for bioavailability: oral, AUC0-t oral vs AUC0-inf of 2-mg/kg IV dose, read-out: F (bioavailability); for AUC(0-t) / Cmax: po, suspension in 0.5% HPMC
Procedure: Crystalline compound of Formula I is prepared as a suspension in 0.5% hydroxypropyl methylcellulose (IPMC) at 6 mg/mL for administration of 30 mg/kg; no correction factor is used for dose formulation. Three male and five female beagle dogs are administered a single PO gavage dose of 30 mg/kg compound of Formula I formulated as a suspension in 0.5% HPMC. All animals are administered the suspension of the crystalline compound of Formula I in fed and fasted states, following a 7-day washout period between dosing periods/feeding conditions. For both feeding conditions, access to food is removed at least 12 hours prior to dose administration. In Crossover #1, 6 dogs are fed a mix of canned and dry food approximately 45 minutes prior to dose administration (Group 1), and 2 dogs are administered the compound of Formula I in a fasted state and fed 4 hours after dosing (Group 2). In Crossover #2, the 2 dogs that are administered the compound of Formula I in the fasted state in Crossover #1 are fed a mix of canned and dry food approximately 45 minutes prior to dose administration (Group 3), and 5 of the dogs that are administered the compound of Formula I in the fed state in Crossover #1 are administered the compound of Formula I in a fasted state and fed 4 hours after dosing (Group 4) (Table 26). The same 3 males and 3 females are assigned to Groups 1 and 4 (with the exception of one female, which is assigned to Group 1 but is not included in Group 4), and the same 2 females are assigned to Groups 2 and 3.
Blood samples are collected via the jugular vein following PO doses at 0 (pre-dose), 0.5, 1, 2, 4, 8 24 and 48 hours into EDTAblood collection tubes. Samples are centrifuged at 3500 rpm for 10 minutes at 4-8° C. and the plasma fraction is stored frozen at −70° C. prior to bioanalytical analysis. Concentrations of the compound of Formula I in dog plasma are determined by LC-MS/MS following protein precipitation with acetonitrile. Non-compartmental pharmacokinetic parameters of the compound of Formula I are calculated by conventional methods using individual plasma concentration profiles over time and Microsoft Excel.

[2] = In vivo dog bioavailability and pharmacokinetic study, reference vs SDD; conditions: beagle, plasma, po, 30 mg/kg, dogs, suspension in 0.5% HPMC in water, mean ± SD
Procedure: Dogs are fasted overnight prior to dosing (fasted) or fed canned food 45 min prior to dosing (fed). Samples for pharmacokinetic (PK) analysis are collected at 30 min, 1, 2, 4, 8, 24, and 48 hours post-dose. Blood samples are processed to plasma and stored frozen at −70° C. until analysis of the compound of Formula I concentrations. The concentration of the compound of Formula I in the plasma is determined by reverse phase HPLC with mass spectrometry detection. The compound of Formula I area under the curve is calculated by the trapezoidal method over the time course of the study. ANOVA with Dunett correction for multiple comparisons is used to determine statistical significant of differences from the reference formulation. The values of AUC and Cmax are reported as averages±standard deviation for each group of dogs in Table 24.

[3] = beagle dogs, single PO 30 mg/kg
[4] = beagle dogs, fasted, single PO 30 mg/kg
[5] = beagle dogs, fed, single PO 30 mg/kg

COc1ccc(F)cc1C(=O)NCc1ccc(-c2nn([C@@H](C)C(F)(F)F)c(N)c2C(N)=O)cc1 [Crystalline compound of Formula I, (S)-5-amino-3-(4-((5-fluoro-2-methoxybenzamido)methyl)phenyl)-1-(1,1,1-trifluoropropan-2-yl)-1H-pyrazole-4-carboxamide]
AUC0-t fold change (fed/fasted ratio) [1, 3]: 7.5 ± 3.3
Cmax fold change (fed/fasted ratio) [1, 3]: 4.8 ± 2.1
bioavailability ([1]; fasted): 5.09%
bioavailability ([1]; fed): 29.7%
AUC(0-t) [1, 4]: 8180 ± 3680 ng·h/mL
Cmax [1, 4]: 597 ± 197 ng/mL
AUC(0-t) [1, 5]: 47800 ± 21300 ng·h/mL
Cmax [1, 5]: 2370 ± 679 ng/mL

COc1ccc(F)cc1C(=O)NCc1ccc(-c2nn([C@@H](C)C(F)(F)F)c(N)c2C(N)=O)cc1 [Reference, (S)-5-amino-3-(4-((5-fluoro-2-methoxybenzamido)methyl)phenyl)-1-(1,1,1-trifluoropropan-2-yl)-1H-pyrazole-4-carboxamide]
AUC ([2]; fasted): 11300 ng·h/mL
Cmax ([2]; fasted): 597 ng/mL
AUC ([2]; fed): 47800 ng·h/mL
Cmax ([2]; fed): 2370 ng/mL
